Test results as given in patent US4029780A, “3-Piperazinyl 1,2,4-benzothiadiazine 1,1-dioxide derivatives their compositions and method of use” (Dainippon Pharmaceutical Co., Ltd., priority 1974, dated 1977).

Assays:
[1] = system: Male Wistar rats; assay: Effect on blood glucose (b), intraperitoneal; details: 300 mg/kg i.p.
Protocol: (b) Male Wistar rats weighing 260-285 g were used. […] 4 ml/kg of the above solution of each test compound was intraperitoneally administered to each animal. The blood samples were taken prior to dosing and 1, 3 and 6 hours after the administration and the plasma glucose levels were determined in a similar manner to that described in (a).

[2] = cited from earlier work
[3] = system: Male Wistar rats; assay: Effect on blood glucose (a), oral; details: 300 mg/kg p.o.
Protocol: (a) Male Wistar rats weighing 190-210 g were used. Each test compound was suspended in a concentration of 150 mg/ml in a 0.5% aqueous tragacanth solution and orally administered at a dose of 300 mg/kg by the stomach tube.

[4] = system: Spontaneously hypertensive male rats; assay: Antihypertensive activity in spontaneously hypertensive rats (oral, 10 successive days); assay type: in vivo, rat; details: 10 mg/kg/day p.o.
Protocol: Spontaneously hypertensive male rats [SHR, Jap. Circ. J. 27, 282-93 (1963)] being 18-23 weeks of age and having systolic blood pressure levels of 170-190 mmHg were used. The test compounds were each suspended in a 0.5% aqueous tragacanth solution and administered orally in a dose of 10 mg/kg/day by stomach tube to SHR once a day for 10 successive days. The blood pressure of conscious SHR was measured prior to dosing and 5 hours after administration. It was also measured once daily over a period of 7 days after the end of the treatment period. The measurement of the blood pressure was made by a plethysmographtail method [Jap. Circ. J. 27, 282-93 (1963)].

[5] = system: Male Wistar rats; assay: Effect on urine volume and electrolyte excretion; assay type: in vivo, rat; details: 100 mg/kg p.o., urinary excretion over 5 hours
Protocol: Male Wistar rats weighing 220 to 260 g were used. Each test compound was suspended in a solution of tragacanth dissolved in a concentration of 0.5% in a 0.9% saline solution so that the volume of the resulting suspension to be administered would be always 25 ml/Kg. The test compounds were administered orally by the stomach tube to the animals at the prescribed doses. The animals were then placed in a metabolic cage and the urine was collected over a period of 5 hours. The total amount of sodium, potassium and chloride excreted was determined by Auto-Analyzer, made by Technicon Instruments Corporation.

[6] = well known; cited from earlier work

SMILES: CC1=Nc2ccc(Cl)cc2S(=O)(=O)N1 [Compound 3, 7-chloro-3-methyl-2H-1,2,4-benzothiadiazine 1,1-dioxide]
- Blood glucose ([1]; 0 hr (prior to dosing)): 100 mg/dL
- Blood glucose ([1]; 1 hr): 361 mg/dL
- Blood glucose ([1]; 3 hr): 599 mg/dL
- Blood glucose ([1]; 6 hr): 675 mg/dL
- Diuretic action ([2]; known): no diuretic action
- Antidiuretic activity ([2]; literature): antidiuretic effects (i.e., sodium and water retaining effect)
- Blood glucose ([3]; 0 hr (prior to dosing)): 111 mg/dL
- Blood glucose ([3]; 1 hr): 126 mg/dL
- Blood glucose ([3]; 3 hr): 125 mg/dL
- Blood glucose ([3]; 6 hr): 146 mg/dL
- Blood glucose ([3]; 10 hr): 148 mg/dL
- Blood pressure ([4]; day 0, 5 hours after administration): 155 mm Hg
- Blood pressure ([4]; day 0, prior to dosing (0)): 173 mm Hg
- Blood pressure ([4]; day 2, 5 hours after administration): 146 mm Hg
- Blood pressure ([4]; day 2, prior to dosing (0)): 166 mm Hg
- Blood pressure ([4]; day 4, 5 hours after administration): 151 mm Hg
- Blood pressure ([4]; day 4, prior to dosing (0)): 159 mm Hg
- Blood pressure ([4]; day 6, 5 hours after administration): 143 mm Hg
- Blood pressure ([4]; day 6, prior to dosing (0)): 150 mm Hg
- Blood pressure ([4]; day 8, 5 hours after administration): 137 mm Hg
- Blood pressure ([4]; day 8, prior to dosing (0)): 153 mm Hg
- Blood pressure ([4]; day 10, 24 hours after the final treatment): 144 mm Hg
- Blood pressure ([4]; day 14, 120 hours after the final treatment): 175 mm Hg
- Cl- [5]: 0.20 mEq
- K+ [5]: 0.37 mEq
- Na+ [5]: 0.17 mEq
- Na+/K+ [5]: 0.51
- Hyperglycemic effects [6]: marked hyperglycemic effects
